The text below walks through data of paper PMC8465942, “Cyano- and Ketone-Containing Selenoesters as Multi-Target Compounds against Resistant Cancers” (Cancers, 2021).

The IC10 is the point of the concentration-response curve where the effect stands at 10%. A word on the IC50: it is the concentration that gives 50% inhibition. A word on the melting point: it is the temperature, or range, at which the solid turns liquid.

“Also recorded” adds a separate entry of the source. Marks after values point to notes of the source that are not given here.

Series [1] concerns HaCaT cell line. The series can be described thus: Toxicity on HaCaT cells (IC10 used as dose). Type of series: cell-based. Particulars: Homo sapiens, concentration inhibiting 10% of the population, highest non-toxic concentration, read-out: Dose IC10. The procedure:
The activity of selenoesters was tested on several cancer cell lines, including HepG2 (hepatocellular carcinoma, CCL-23TM, ATCC); HeLa (cervical adenocarcinoma, CCL-2TM, ATCC); B16 (skin melanoma, CCL-6322TM, ATCC); and a non-cancerous cell line, HDF (human dermal fibroblasts, Sigma-Aldrich). HepG2, HeLa, B16, and HDF cell lines were cultivated in EMEM medium supplemented with 10% FBS, 2 mM L-glutamine, and 1% penicillin-streptomycin mixture. The HaCaT cell line was cultivated in DMEM medium supplemented with 10% FBS and 1% penicillin-streptomycin mixture. All of the cells were cultivated in a CO2 incubator (5% CO2, 37 °C). Twice per week, the cell lines were passaged according to a standardized protocol with a trypsin-EDTA solution. […]
Wound healing activity of selenoesters was evaluated as the ability of the cells to migrate and close the gap created on the monolayer of human keratinocytes (HaCaT cell line). The tested substances were applied in the highest possible non-toxic concentration (IC10, concentration inhibiting 10% of the population). In general, ketone-selenoesters were more toxic (except K4 and K1) than cyano-selenoesters (except N4); therefore, they were applied at lower doses (0.17–0.30 µM) when compared to cyanoselenoesters (0.36–0.64 µM). Compounds K1, K4, and N4 were applied at a concentration of 0.30, 0.46, and 0.20 µM, respectively. As could be seen in Table 8, all ketone-selenoesters stimulated wound healing more effectively in comparison to both untreated control (p < 0.0000005) and allantoin (p < 0.00005). […] Only samples N1, N2, N4, and N7 closed effectively the damaged wound in 24 h, with the gap closure around 70%.

Series [2] has as its system HepG2 (hepatocellular carcinoma). The series can be described thus: Cytotoxicity on HepG2 cells. It is filed as cell-based. Particulars: Homo sapiens. The procedure: (§1) The activity of selenoesters was tested on several cancer cell lines, including HepG2 (hepatocellular carcinoma, CCL-23TM, ATCC); HeLa (cervical adenocarcinoma, CCL-2TM, ATCC); B16 (skin melanoma, CCL-6322TM, ATCC); and a non-cancerous cell line, HDF (human dermal fibroblasts, Sigma-Aldrich). HepG2, HeLa, B16, and HDF cell lines were cultivated in EMEM medium supplemented with 10% FBS, 2 mM L-glutamine, and 1% penicillin-streptomycin mixture. The HaCaT cell line was cultivated in DMEM medium supplemented with 10% FBS and 1% penicillin-streptomycin mixture. All of the cells were cultivated in a CO2 incubator (5% CO2, 37 °C). Twice per week, the cell lines were passaged according to a standardized protocol with a trypsin-EDTA solution.
(§2) The selectivity indexes (SI) were calculated as the ratio of the IC50 value in the non-tumour cells and the IC50 in the cancer cell lines. The compound’s activity towards cancer cells is considered as strongly selective if the selectivity index (SI) value is higher than 6, moderately selective if 3 < SI < 6, slightly selective if 1 < SI < 3, and non-selective if SI is lower than 1 [16].

Series [3] concerns Colo 205 human colonic adenocarcinoma cell line. The series can be described thus: Cytotoxicity (MTT) on sensitive Colo 205 cells. Type of series: cell-based. Particulars: for IC50: Homo sapiens, COLO 205, 24 h, MTT, read-out: Colo 205 (IC50 µM) Mean; for SI MRC-5/Colo 205: ratio IC50 non-tumour cells / IC50 cancer cells.
Description: (§3) Three cell lines have been used in this study: the doxorubicin-sensitive Colo 205 (CCL-222, ATCC, Manassas, VA, USA) human colonic adenocarcinoma cell line; the multidrug resistant Colo 320/MDR-LRP expressing P-gp (MDR1)-LRP (CCL-220.1, ATCC) human colonic adenocarcinoma cell line; and the MRC-5 human embryonal lung fibroblast cell line (CCL-171, ATCC). The colon adenocarcinoma cell lines were purchased from LGC Promochem (Teddington, UK), and the MRC-5 cell line was purchased from Sigma-Aldrich (Merck KGaA, Darmstadt, Germany). Their culture conditions are as follows: Colo 205 (CCL-222, ATCC) and Colo 320/MDR-LRP expressing P-gp (MDR1)-LRP (CCL-220.1, ATCC) human colon adenocarcinoma cell lines were cultured in RPMI 1640 medium, supplemented with 10% FBS, 2 mM L-glutamine, 1 mM Na-pyruvate, and […]. The cell lines were incubated at 37 °C, 5% CO2, and 95% air atmosphere. The semi-adherent human colon cancer cells were detached with a Trypsin-Versene (EDTA) solution for 5 min at 37 °C. MRC-5 human embryonal lung fibroblast cells were cultured in EMEM containing 4.5 g/L of glucose and supplemented with a non-essential amino acid mixture, a selection of vitamins, and 10% FBS. The cell lines were incubated at 37 °C, 5% CO2, and 95% air atmosphere.
(§4) The effects of increasing concentrations of the compounds on cell growth were tested in 96-well flat-bottomed microtiter plates. Moreover, 10^4 of human colonic adenocarcinoma cells in 100 μL of the medium (RPMI-1640) were added to each well, except for the medium control wells. The adherent human embryonic lung fibroblast cell line was seeded in the EMEM medium for 4 h before the assay. The two-fold serial dilutions of the compounds were made in a separate plate (0.19–100 μM), and then transferred to the plates containing the adherent corresponding cell line. Culture plates were incubated at 37 °C for 24 h. At the end of the incubation period, 20 μL of MTT (thiazolyl blue tetrazolium bromide) solution (from a 5 mg/mL stock solution) were added to each well. After incubation at 37 °C for 4 h, 100 μL of sodium dodecyl sulfate (SDS) solution (10% SDS in 0.01 M HCl) was added to each well, and the plates were further incubated at 37 °C overnight. Cell growth was determined by measuring the optical density (OD) at 540 nm (ref. 630 nm) with a Multiscan EX ELISA reader (Thermo Labsystems, Cheshire, WA, USA). Inhibition of cell growth was expressed as IC50 values, defined as the inhibitory dose that reduces the growth of the cells exposed to the tested compounds by 50%. IC50 values and the SD of triplicate experiments were calculated by using GraphPad Prism software version 5.00 for Windows, with a non-linear regression curve fit (GraphPad Software, San Diego, CA, USA; www.graphpad.com, accessed on 12 July 2021). Doxorubicin (from a 2 mg/mL stock solution, Teva Pharmaceuticals) was used as a positive control.
as §2

In series [4] the test system is B16 (skin melanoma). The series can be described thus: Cytotoxicity on B16 cells. Type of series: cell-based, murine. Particulars: Mus musculus. The procedure: as §1, §2
Series [5] concerns resistant Colo 320 colon adenocarcinoma cells expressing the ABCB1 transporter. The series can be described thus: Checkerboard combination assay with doxorubicin. It is filed as cell-based, human. The procedure:
A checkerboard microplate method was applied to study the effect of drug interactions between the selenocompounds and the chemotherapeutic drug doxorubicin on resistant Colo 320 colon adenocarcinoma cells expressing the ABCB1 transporter. Results were expressed in terms of the combination index (CI) values at 50% growth inhibition (ED50), which were determined by using CompuSyn software to plot 4 or 5 data points for each ratio.
To perform the experiment, the dilutions of doxorubicin were made in a horizontal direction in 100 µL, and the dilutions of the Se-compounds were made vertically in the microtiter plate in a volume of 50 µL. The cells were re-suspended in the culture medium and distributed into each well in 50 µL portions containing 6000 cells. The plates were incubated for 72 h at 37 °C in a CO2 incubator. The cell growth rate was determined after MTT staining. At the end of the incubation period, 20 μL of MTT solution was added to each well. After incubation at 37 °C for 4 h, 100 μL of SDS was added to each well and the plates were further incubated at 37 °C overnight. The optical density (OD) was measured at 540/630 nm with the Multiscan EX ELISA reader.

Series [6] in a line: Cytotoxicity (MTT) on normal MRC-5 fibroblasts. Type of series: cell-based. Particulars: human.
Description: as §3, §4

Series [7] relates to HepG2 (hepatocellular carcinoma). The series can be described thus: Cytotoxicity on HepG2 cells. Particulars: ratio IC50 non-tumour cells / IC50 cancer cells. Type of series: cell-based, human.
For series [8], the system named is Colo 320/MDR-LRP human colonic adenocarcinoma cell line. The series can be described thus: Cytotoxicity (MTT) on resistant Colo 320 cells. Type of series: cell-based. Particulars: for IC50: Homo sapiens, COLO 320, 24 h, MTT, read-out: Colo 320 (IC50 µM) Mean; for SI MRC-5/Colo 320: ratio IC50 non-tumour cells / IC50 cancer cells.
Description: as §3, §4, §2

Series [9] has as its system HeLa (cervical adenocarcinoma). The series can be described thus: Cytotoxicity on HeLa cells. It is filed as cell-based. Particulars: Homo sapiens. The procedure:
as §1, §2

Series [10] has as its system human keratinocyte (HaCaT). The series can be described thus: Wound healing scratch assay. It is filed as cell-based. Particulars: 50 µg/mL positive control. The procedure: Wound healing activity was realized using human keratinocyte (HaCaT, Thermo Fisher Scientific, Waltham, MA, USA). Wound healing was measured in vitro by scratch assay, as the migration rate of the cells to close the gap was created, as described by Ling et al., with slight modifications. Briefly, HaCaT cells at the concentration of 5×10^5 cells were seeded into 12-well plates and incubated at 37 °C and 5% CO2 until the cells formed a uniform layer. After layer formation, the cells were washed with PBS and then scratched with a sterile micropipette tip. […] The images of the scratch area were captured using an inverted microscope in 4× magnification at different time intervals (0 h, 24 h, 48 h) and evaluated using ImageJ software (National Institutes of Health, Bethesda, MD, USA). All of the experiments were performed in four replicates, and a minimum of five measurements were considered from each image captured. Dean–Dixon’s test was used to remove the outliners in the values measured, and further statistical significances between the groups were established by t-test (Excel, Microsoft Office, Redmond, WA, USA). The wound closure was calculated as the ratio of the gap size at the beginning minus the gap size at the evaluated time.

In the case of `N#CC[Se]C(=O)c1cccs1` [N1, Se-(Cyanomethyl) Thiophene-2-carboselenoate], the melting point was 50 to 52 °C. In series [1], the IC10 stood at 400 nM. For the same compound, in series [2], the IC50 came to 11.3 µM. In series [3], the 50% inhibitory concentration (IC50) worked out at 2.37 µM and the “SI MRC-5/Colo 205” value is on record as >6 *. The compound further displayed an IC50 in series [4] of 1.9 µM. The Interaction with doxorubicin entry in series [5] (in at least one of the ratios tested) is recorded as “synergistic manner; also recorded: synergistic effect”. Further, the “Type of Interaction” value in [5] (ratio 1.7:1, starting conc. 15 µM) is “Antagonism”. Further, the “Type of Interaction” value in [5] (ratio 3.4:1, starting conc. 15 µM) is on record as “Synergism”. Further, the “Type of Interaction” value in series [5] (ratio 6.8:1, starting conc. 15 µM) was “Synergism”. In addition, in series [5] (ratio 13.6:1, starting conc. 15 µM), the “Type of Interaction” value is “Additive effect”. Also, the “Type of Interaction” value in series [5] (ratio 27.2:1, starting conc. 15 µM) is “Synergism”. Besides, in series [6], the IC50 at 24 h is greater than 100000 nM. Further, the “SI MRC-5/HepG2” value in series [7] is >6 *. In series [8], the IC50 was 7.64 µM and the “SI MRC-5/Colo 320” value was >6 *. Half-maximal inhibition in [9] (IC50) was put at 2 µM.

For `N#CC[Se]C(=O)c1ccc(F)c(Cl)c1` [N6, Se-(Cyanomethyl) 3-Chloro-4-fluorobenzoselenoate], the melting point lay within 73 to 75 °C. Besides, in [1], the IC10 was determined as 600 nM. The IC50 in series [2] came out at 9.6 µM. In addition, in [3], the IC50 was 2.24 µM and the “SI MRC-5/Colo 205” value is listed as >6 *. For the same compound, in series [4], the IC50 was found to be 1.7 µM. In series [5] (ratio 1.2:1, starting conc. 10 µM), the “Type of Interaction” value is given as “Antagonism”. The “Type of Interaction” value in series [5] (ratio 4.8:1, starting conc. 10 µM) is on record as “Antagonism”. For the same compound, in [5] (ratio 9.6:1, starting conc. 10 µM), the “Type of Interaction” value is recorded as “Antagonism”. For the same compound, the “Type of Interaction” value in series [5] (ratio 19.2:1, starting conc. 10 µM) is on record as “Antagonism”. Besides, in series [5] (ratio 38.4:1, starting conc. 10 µM), the “Type of Interaction” value was “Antagonism”. This compound also showed an IC50 at 24 h in series [6] greater than 100000 nM. In addition, the “SI MRC-5/HepG2” value in series [7] is listed as >6 *. In addition, in series [8], the IC50 turned out to be 5.19 µM and the “SI MRC-5/Colo 320” value is >6 *. Moreover, in series [9], inhibition was half-maximal at 1.3 µM (IC50).

On to `NC(=O)NC1NC(=O)NC1=O` (centres unmarked) [PC, Allantoin], for which the “Closure (%) 24 h” value in series [10] (24 h) is 70.37%. The “Closure (%) 48 h” value in [10] (48 h) turned out to be 84.63%.
